Consider one compound from publication PMC5730406 (European journal of immunology, 2015).

The structures appear in SMILES notation.

The experiment deals with T1, Itk F434G/Δ429 (Itkas) (Homo sapiens, UniProt Q08881, DEL429-429/F435G).
T1 sequence (Q08881 with tags, fused parts or gaps DEL429-429/F435G): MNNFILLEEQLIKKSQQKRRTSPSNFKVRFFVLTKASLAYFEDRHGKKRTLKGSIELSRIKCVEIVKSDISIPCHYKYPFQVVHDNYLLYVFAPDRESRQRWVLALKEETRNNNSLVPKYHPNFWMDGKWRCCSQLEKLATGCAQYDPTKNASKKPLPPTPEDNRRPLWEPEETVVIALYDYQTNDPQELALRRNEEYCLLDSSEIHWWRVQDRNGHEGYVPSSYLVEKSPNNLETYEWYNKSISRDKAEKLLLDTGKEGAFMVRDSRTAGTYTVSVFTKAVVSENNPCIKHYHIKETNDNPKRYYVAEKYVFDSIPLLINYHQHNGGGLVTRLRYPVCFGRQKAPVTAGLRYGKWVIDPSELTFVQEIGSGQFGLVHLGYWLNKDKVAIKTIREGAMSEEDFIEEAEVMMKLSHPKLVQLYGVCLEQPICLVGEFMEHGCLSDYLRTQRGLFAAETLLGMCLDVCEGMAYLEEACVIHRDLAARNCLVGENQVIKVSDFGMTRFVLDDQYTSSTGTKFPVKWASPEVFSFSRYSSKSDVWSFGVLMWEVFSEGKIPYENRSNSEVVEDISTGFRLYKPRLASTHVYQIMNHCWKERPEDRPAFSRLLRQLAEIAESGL
It counts as cell-based.

`CC(C)(C)n1nc(Cc2cccc3ccccc23)c2c(N)ncnc21` [1-NM-PP1]: the half-maximal inhibitory concentration (IC50) is ~50 nM.

Broadly, the IC50 is the point on the concentration scale where inhibition reaches its midpoint.
